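96-well plates; 48 h exposure; 5 concentrations. Endpoints by linear interpolation between flanking doses. Not reached: highest tested concentration assigned. TGI is the concentration that stops growth completely.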
Columns and labels:
Assay in all cases: inhibition of tumour cell growth, NCI panel, 48 h
HCT-15 colon = system: HCT-15 colon
SF-295 CNS = system: SF-295 CNS
UACC-257 melanoma = system: UACC-257 melanoma
MALME-3M melanoma = system: MALME-3M melanoma
HOP-92 NSCLC = system: HOP-92 NSCLC
A549 NSCLC = system: A549 NSCLC
OVCAR-8 ovarian = system: OVCAR-8 ovarian
SNB-75 CNS = system: SNB-75 CNS
SK-OV-3 ovarian = system: SK-OV-3 ovarian
U251 CNS = system: U251 CNS
OVCAR-5 ovarian = system: OVCAR-5 ovarian
TK-10 renal = system: TK-10 renal
SN12C renal = system: SN12C renal
IGROV1 ovarian = system: IGROV1 ovarian
COLO 205 colon = system: COLO 205 colon
HOP-62 NSCLC = system: HOP-62 NSCLC
NCI/ADR-RES ovarian = system: NCI/ADR-RES ovarian
BT-549 breast = system: BT-549 breast
HS 578T breast = system: HS 578T breast

Row | Compound | TGI (HCT-15 colon) | TGI (SF-295 CNS) | TGI (UACC-257 melanoma) | TGI (MALME-3M melanoma) | TGI (HOP-92 NSCLC) | TGI (A549 NSCLC) | TGI (OVCAR-8 ovarian) | TGI (SNB-75 CNS) | TGI (SK-OV-3 ovarian) | TGI (U251 CNS) | TGI (OVCAR-5 ovarian) | TGI (TK-10 renal) | TGI (SN12C renal) | TGI (IGROV1 ovarian) | TGI (COLO 205 colon) | TGI (HOP-62 NSCLC) | TGI (NCI/ADR-RES ovarian) | TGI (BT-549 breast) | TGI (HS 578T breast)
1 | COc1cccc(NC(=S)Nn2c(C)nc3ccccc3c2=O)c1 | > 100 µM | > 100 µM | > 100 µM | > 100 µM | > 100 µM | > 100 µM | > 100 µM | > 100 µM | > 100 µM | > 100 µM | > 100 µM | > 100 µM | > 100 µM | > 100 µM | > 100 µM | > 100 µM |  |  | 
2 | CC(C)(C)NN=C1C(C)(C)C(=NNC(C)(C)C)C1(C)C | > 100 µM | > 100 µM | > 100 µM | > 100 µM | > 100 µM | > 100 µM | > 100 µM | > 100 µM | > 100 µM | > 100 µM | > 100 µM | > 100 µM | > 100 µM | > 100 µM | > 100 µM | > 100 µM |  |  | 
3 | CCCCc1c2c(nc3c1CCCC3O)/C(=C/c1ccccc1)CCC2 (centres undefined) | 61.6 µM | > 100 µM | 96.6 µM | 44.8 µM | > 100 µM | > 100 µM | > 100 µM | > 100 µM | > 100 µM | 64.1 µM | > 100 µM | 74.7 µM | 62.5 µM | > 100 µM | 33.4 µM | > 100 µM |  |  | 
4 | CC(OC(=O)NCn1cc(-c2ccccc2)nn1)c1ccccc1 (centres undefined) | > 100 µM | > 100 µM | > 100 µM | 89.9 µM | > 100 µM | > 100 µM | > 100 µM |  |  | > 100 µM | > 100 µM | > 100 µM | > 100 µM | > 100 µM | > 100 µM | > 100 µM | > 100 µM | > 100 µM | 
5 | Clc1ccc(SCCSCCCCCCCCCCSCCSc2ccc(Cl)cc2)cc1 | > 100 µM | > 100 µM | > 100 µM | > 100 µM | > 100 µM | > 100 µM | > 100 µM | > 100 µM | > 100 µM | > 100 µM | > 100 µM | > 100 µM | > 100 µM | > 100 µM | > 100 µM | > 100 µM |  |  | 
6 | CCCC/C=C/C1Cc2ccccc2CN1S(=O)(=O)c1ccc(C)cc1 (centres undefined) | 49.2 µM | 35.6 µM | 17.9 µM | > 100 µM | 8.82 µM | 26.3 µM | 28.6 µM | 37.5 µM | 90.6 µM | 39.3 µM | 82.3 µM | 61.3 µM | 23 µM | 26.9 µM | 22 µM | > 100 µM |  |  | 
7 | CC(=O)O/N=C/c1ncccc1OC(C)=O | > 100 µM | > 100 µM | > 100 µM | > 100 µM | > 100 µM | > 100 µM | > 100 µM | > 100 µM | > 100 µM | > 100 µM | > 100 µM | > 100 µM | > 100 µM | > 100 µM | > 100 µM | > 100 µM |  |  | 
8 | CCOC(=O)C(=O)Nc1c(F)cc(F)cc1Br | > 100 µM | > 100 µM | > 100 µM | > 100 µM | > 100 µM | > 100 µM | > 100 µM | > 100 µM | > 100 µM | > 100 µM | > 100 µM | > 100 µM | > 100 µM | > 100 µM | > 100 µM | > 100 µM |  |  | 
9 | CCCn1c(SCC)c2ccccc2c1-c1nc(F)nc(F)n1 | > 100 µM | > 100 µM |  | > 100 µM | > 100 µM | > 100 µM |  |  |  | > 100 µM | > 100 µM | > 100 µM | > 100 µM |  | > 100 µM | > 100 µM |  |  | 
10 | COC(=O)C1=C(C(=O)OC)C2(OC(C)=O)c3ccccc3-c3ccccc3C12 (centres undefined) | 10.3 µM | 33 µM | 11.8 µM | 5.83 µM | 3.67 µM | 31.9 µM | 12.2 µM | 24.4 µM | 29.1 µM | 20.1 µM | 27.2 µM | 8.08 µM | 9.28 µM | 10.1 µM | 3.68 µM | 48.3 µM |  |  | 
11 | CSC(C1c2ccccc2N(C)C2=NC(=O)N(C)C(=O)C21Cl)S(=O)(=O)c1ccc(C)cc1 (centres undefined) | > 100 µM | > 100 µM | > 100 µM | > 100 µM | 59.9 µM | > 100 µM | 46.3 µM | 75.9 µM | > 100 µM | > 100 µM | > 100 µM | > 100 µM | > 100 µM | > 100 µM | > 100 µM | > 100 µM |  |  | 
12 | Nc1nc(SCCNC(=O)CCc2ccc(O)cc2)nc2c1ncn2C1OC(CO)C(O)C1O (centres undefined) | > 203 µM | > 203 µM | > 203 µM | > 203 µM | > 203 µM | > 203 µM | > 203 µM | > 203 µM | > 203 µM | > 203 µM | > 203 µM | > 203 µM | > 203 µM | > 203 µM | > 203 µM | > 203 µM |  |  | 
13 | CCCN(CCCC(NC(C)=O)C(=O)NCc1ccccc1)C(=O)NC (centres undefined) | > 100 µM | > 100 µM | > 100 µM | > 100 µM | > 100 µM | > 100 µM | > 100 µM | 75.3 µM | > 100 µM | > 100 µM | > 100 µM | > 100 µM | > 100 µM | > 100 µM | > 100 µM | > 100 µM |  |  | 
14 | COC1=CC(=O)[C@H]2[C@H](C)C(c3ccccc3)[C@@]2(C)C1=O (some centres undefined) | > 100 µM | > 100 µM |  | > 100 µM | > 100 µM | > 100 µM | > 100 µM | > 100 µM | > 100 µM | > 100 µM | > 100 µM | > 100 µM |  | > 100 µM | > 100 µM | > 100 µM |  |  | 
15 | N#Cc1c(-c2ccco2)cc(-c2ccc(NCc3nc4ccccc4[nH]3)cc2)nc1N | 69.2 µM | 52.3 µM |  | 51.5 µM | 67.4 µM | 93.8 µM | 46.3 µM | 91.6 µM | > 100 µM | > 100 µM | > 100 µM | 86.2 µM | 59.6 µM | > 100 µM | 47.9 µM | 62.8 µM |  |  | 
16 | NC(=O)N1N=C2c3ccccc3CC[C@@H]2C1c1ccccc1 (some centres undefined) | > 100 µM | > 100 µM | > 100 µM | > 100 µM |  | > 100 µM | > 100 µM | > 100 µM | > 100 µM | > 100 µM | > 100 µM | > 100 µM | > 100 µM | > 100 µM | > 100 µM | > 100 µM |  |  | 
17 | COC(=O)C(CCCC1(c2ccccc2)OCCO1)C(C)=O (centres undefined) | > 100 µM | > 100 µM | > 100 µM | > 100 µM |  | > 100 µM | > 100 µM | > 100 µM | > 100 µM | > 100 µM | > 100 µM | > 100 µM | > 100 µM | > 100 µM | > 100 µM | > 100 µM |  |  | 
18 | COc1ccc(/C(=N/NC(=O)NN)C(c2ccc(OC)cc2)C2(O)CNc3c(Cl)cc(Cl)cc32)cc1 (centres undefined) | > 100 µM | > 100 µM | > 100 µM | > 100 µM | > 100 µM | > 100 µM | > 100 µM | > 100 µM | > 100 µM | > 100 µM | > 100 µM | > 100 µM | > 100 µM | > 100 µM | > 100 µM | > 100 µM |  |  | 
19 | CC(=O)OCC1OC(n2c3c(c(-c4ccco4)c(C#N)c2=S)CCC3)C(OC(C)=O)C(OC(C)=O)C1OC(C)=O (centres undefined) | > 100 µM | > 100 µM | > 100 µM | > 100 µM | 69 µM | > 100 µM |  | > 100 µM | > 100 µM | > 100 µM | > 100 µM | > 100 µM | > 100 µM | > 100 µM | > 100 µM | > 100 µM | > 100 µM | > 100 µM | > 100 µM
20 | COc1cc2c(c(C)c1O)[C@H]1COc3ccccc3[C@H]1O2 | 18.5 µM | > 100 µM | 52.9 µM | 89.1 µM | 47.6 µM | 81.6 µM | 67.3 µM | 23.7 µM | > 100 µM |  | > 100 µM | 80.8 µM |  | 31.3 µM | 52.2 µM | > 100 µM |  |  | 
21 | COC(OC)c1cccc2c1C(=O)CCC1(O)c3ccccc3C1C2 (centres undefined) | > 100 µM | > 100 µM | > 100 µM | > 100 µM |  | > 100 µM | > 100 µM | > 100 µM | > 100 µM |  | > 100 µM | > 100 µM | > 100 µM | > 100 µM | > 100 µM | > 100 µM |  |  | 
22 | CSc1nc(-c2cc3c(c(SC)n2)CCCCC3)cc2c1CCCCC2 | > 100 µM | > 100 µM | > 100 µM |  |  | > 100 µM | > 100 µM | > 100 µM | > 100 µM | > 100 µM | > 100 µM | > 100 µM | > 100 µM | 85.9 µM | > 100 µM | > 100 µM | > 100 µM | > 100 µM | 
23 | Cc1cc(N(CCC#N)S(C)(=O)=O)ccc1C=O | > 100 µM | > 100 µM | > 100 µM | > 100 µM |  | > 100 µM | > 100 µM | > 100 µM | > 100 µM | > 100 µM | > 100 µM |  | > 100 µM | > 100 µM | > 100 µM | > 100 µM |  |  | 

Source: PubChem BioAssay (NCI)
